The supplement of paper PMC10307832

How the values were obtained:
Assay in all cases: relative viability (nuclei count vs DMSO), 5 days (fraction); higher = more cells survive
Salubrinal + Trametinib = compound: O=C(/C=C/c1ccccc1)NC(NC(=S)Nc1cccc2cccnc12)C(Cl)(Cl)Cl [Salubrinal] + CC(=O)Nc1cccc(-n2c(=O)n(C3CC3)c(=O)c3c(Nc4ccc(I)cc4F)n(C)c(=O)c(C)c32)c1 [Trametinib] (partner 0.02 µM)
In short: (§1)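 After 5 days of treatment, lung cancer cells in 1536-well plates were fixed and stained in a single step (final 0.05% Triton X-100, 1% formaldehyde, 1 ug/ml Hoechst) and their nuclei counted on 4× images. Treatment had been applied by pin tool the day after seeding as one drug alone or as a fixed anchor-drug dose with five library-drug doses (not always all listed) in √10 steps. Relative viability is the nuclei count of treated wells divided by that of vehicle wells, and values are medians of duplicate plates.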

[1] = compound: Cc1ccc2nc(NCCN)c3ncc(C)n3c2c1 + COc1cc2c(Oc3ccc(NC(=O)C4(C(=O)Nc5ccc(F)cc5)CC4)cc3F)ccnc2cc1OCCCN1CCOCC1 [Foretinib] (partner 0.25 µM)
In short: as §1

[2] = compound: Cc1ccc2nc(NCCN)c3ncc(C)n3c2c1 + O=C(CCCCCCC(=O)Nc1ccccc1)NO [Vorinostat] (partner 1 µM)
In short: as §1

Salubrinal + Navitoclax = compound: O=C(/C=C/c1ccccc1)NC(NC(=S)Nc1cccc2cccnc12)C(Cl)(Cl)Cl [Salubrinal] + CC1(C)CCC(c2ccc(Cl)cc2)=C(CN2CCN(c3ccc(C(=O)NS(=O)(=O)c4ccc(N[C@H](CCN5CCOCC5)CSc5ccccc5)c(S(=O)(=O)C(F)(F)F)c4)cc3)CC2)C1 [Navitoclax] (partner 0.5 µM)
In short: as §1

Cell Line	relative viability (Salubrinal + Trametinib; first compound 0.08 µM)	relative viability (Salubrinal + Trametinib; first compound 0.253 µM)	relative viability (Salubrinal + Trametinib; first compound 0.8 µM)	relative viability (Salubrinal + Trametinib; first compound 2.53 µM)	relative viability (Salubrinal + Trametinib; first compound 8 µM)	relative viability ([1]; first compound 0.04 µM)	relative viability ([1]; first compound 0.1265 µM)	relative viability ([1]; first compound 0.4 µM)	relative viability ([1]; first compound 1.265 µM)	relative viability ([1]; first compound 4 µM)	relative viability ([2]; first compound 0.04 µM)	relative viability ([2]; first compound 0.1265 µM)	relative viability ([2]; first compound 0.4 µM)	relative viability ([2]; first compound 1.265 µM)	relative viability ([2]; first compound 4 µM)	relative viability (Salubrinal + Navitoclax; first compound 0.08 µM)	relative viability (Salubrinal + Navitoclax; first compound 0.253 µM)	relative viability (Salubrinal + Navitoclax; first compound 0.8 µM)	relative viability (Salubrinal + Navitoclax; first compound 2.53 µM)	relative viability (Salubrinal + Navitoclax; first compound 8 µM)
201T	0.741	0.726	0.788	0.728	0.716	1.07	1.13	1.1	1.1	1.05	0.969	0.975	0.887	1.05	1.02	1.2	1.2	1.24	1.19	1.22
A549	–	–	–	–	–	1.08	0.85	0.975	0.921	0.855	–	–	–	–	–	1.4	1.11	1.22	1.21	1.21
A-427	0.782	0.812	0.791	0.689	0.764	1.09	1.03	0.962	1	0.948	0.9	0.844	0.852	0.876	0.89	0.942	1.01	1.08	0.886	0.926
ABC-1	–	–	–	–	–	1.22	1.05	1.09	0.839	1.01	1.32	1.12	1.39	0.989	0.836	–	–	–	–	–
BEN	1.07	1.03	1.07	1.14	1.12	0.82	0.86	0.657	0.788	0.752	0.544	0.579	0.505	0.636	0.555	0.0699	0.0611	0.0613	0.0706	0.0675
CAL-12T	0.378	0.406	0.327	0.244	0.269	1.14	0.967	1.13	1.14	0.97	0.77	0.711	0.882	0.65	0.629	1.29	0.952	1.21	1.09	1.06
COR-L23	0.7	0.734	0.736	0.581	0.518	0.966	0.915	0.938	1.01	0.865	0.511	0.46	0.417	0.374	0.375	1.2	0.952	1.15	0.927	0.865
COR-L 105	0.466	0.559	0.407	0.477	0.449	1.18	0.995	0.86	0.987	1.15	0.658	1.13	0.845	0.911	0.768	0.715	0.718	0.76	0.765	0.723
Calu-6	–	–	–	–	–	0.855	0.841	0.815	0.833	0.811	–	–	–	–	–	0.903	0.749	0.888	0.877	0.809
ChaGo-K-1	0.968	0.858	0.882	0.905	0.802	0.897	1.03	0.884	0.82	0.895	0.751	0.832	0.771	0.657	0.766	1.07	0.849	1.58	1.37	1.12
EBC-1	–	–	–	–	–	0.0984	0.102	0.098	0.0921	0.0989	–	–	–	–	–	0.349	0.332	0.435	0.399	0.287
EKVX	0.332	0.47	0.565	0.303	0.358	0.987	1.04	0.866	0.822	0.777	0.835	0.676	0.603	0.752	0.737	0.958	0.983	0.911	1.08	1.06
EMC-BAC-2	0.948	0.878	0.937	0.906	0.973	0.966	0.992	0.988	1.01	1.05	0.467	0.433	0.455	0.527	0.392	1.53	1.01	1.2	1.16	1.15
EPLC-272H	0.305	0.298	0.298	0.314	0.298	0.664	0.809	0.64	0.75	0.692	0.564	0.406	0.279	0.374	0.415	1.23	1.02	1.4	1.19	1.04
H3255	0.744	0.55	0.832	0.582	0.597	1.11	0.961	0.744	0.98	0.764	0.831	0.832	0.629	0.706	0.653	0.637	0.481	0.582	0.523	0.564
HARA	0.715	0.873	0.631	0.621	0.702	0.783	0.829	0.903	0.956	0.861	0.473	0.648	0.422	0.499	0.426	1.05	1.18	1.13	1.16	1.11
HCC-15	0.444	0.36	0.379	0.378	0.381	1.08	1.07	1.06	0.885	0.723	0.852	0.873	0.78	0.78	0.744	0.785	0.602	0.722	0.771	0.689
HCC-44	1.19	1.11	1.16	1.09	1.04	–	–	–	–	–	0.981	1.05	1.09	1.08	1.11	1.06	0.899	0.999	0.97	0.802
HCC-78	0.869	0.692	0.652	0.791	0.686	0.579	0.584	0.493	0.626	0.558	0.502	0.426	0.402	0.383	0.436	0.851	0.835	0.982	0.764	0.769
HCC-366	0.509	–	0.379	0.306	0.233	0.914	0.945	0.934	0.945	0.917	0.421	0.359	0.244	0.361	0.296	1.27	0.871	0.985	0.975	0.971

Cell Line	relative viability (Salubrinal + Trametinib; first compound 0.08 µM)	relative viability (Salubrinal + Trametinib; first compound 0.253 µM)	relative viability (Salubrinal + Trametinib; first compound 0.8 µM)	relative viability (Salubrinal + Trametinib; first compound 2.53 µM)	relative viability (Salubrinal + Trametinib; first compound 8 µM)	relative viability ([1]; first compound 0.04 µM)	relative viability ([1]; first compound 0.1265 µM)	relative viability ([1]; first compound 0.4 µM)	relative viability ([1]; first compound 1.265 µM)	relative viability ([1]; first compound 4 µM)	relative viability ([2]; first compound 0.04 µM)	relative viability ([2]; first compound 0.1265 µM)	relative viability ([2]; first compound 0.4 µM)	relative viability ([2]; first compound 1.265 µM)	relative viability ([2]; first compound 4 µM)	relative viability (Salubrinal + Navitoclax; first compound 0.08 µM)	relative viability (Salubrinal + Navitoclax; first compound 0.253 µM)	relative viability (Salubrinal + Navitoclax; first compound 0.8 µM)	relative viability (Salubrinal + Navitoclax; first compound 2.53 µM)	relative viability (Salubrinal + Navitoclax; first compound 8 µM)
HCC-827	0.586	0.544	0.515	0.5	0.548	1.05	1.1	1.06	1.02	0.935	0.851	0.793	0.872	0.857	0.81	1.03	0.958	1.1	1.05	0.979
HOP-62	0.438	0.369	0.382	0.343	0.338	1.05	1.07	1.1	1.13	1.02	0.647	0.752	0.401	0.602	0.663	1.04	0.822	1.09	1.01	0.958
IA-LM	–	–	–	–	–	1.19	1.25	1.07	1.16	0.928	0.92	0.917	–	1.06	0.981	0.847	0.79	0.782	0.595	0.533
LC-2-ad	1.01	0.848	0.885	0.946	0.917	0.96	0.879	0.876	0.984	0.868	0.724	0.689	0.652	0.69	0.689	0.5	0.35	0.666	0.54	0.413
LCLC-97TM1	0.186	0.185	0.209	0.17	0.235	0.91	0.998	0.934	0.931	0.892	0.865	0.867	0.526	0.759	0.737	0.368	0.648	0.464	–	0.433
LCLC-103H	0.737	0.682	0.691	0.738	0.673	0.753	0.919	0.802	0.761	0.633	0.859	0.821	0.686	0.697	0.751	–	–	–	–	–
LK-2	0.918	0.812	0.819	0.722	0.744	1.28	1.2	0.936	0.967	1.06	0.384	0.409	0.302	0.315	0.322	1.07	0.793	1.05	0.958	0.921
LOU-NH91	0.728	0.822	0.788	0.824	0.757	0.914	0.929	0.889	0.93	0.844	1.02	0.902	0.87	0.931	0.858	0.81	0.73	0.737	0.699	0.617
NCI-H358	0.145	0.139	0.135	0.143	0.136	0.752	0.718	0.635	0.721	0.654	0.74	0.617	0.66	0.629	0.564	–	–	–	–	–
NCI-H522	0.631	0.802	0.639	0.859	0.709	–	–	–	–	–	0.825	0.971	0.677	0.92	1.09	–	–	–	–	–
NCI-H650	1.1	0.94	1.08	1	0.976	1.09	0.937	1.12	0.948	1	0.584	0.461	0.351	0.534	0.409	–	–	–	–	–
NCI-H661	0.781	0.523	0.574	0.577	0.546	1.02	0.983	1.03	1.1	0.967	0.752	0.778	0.748	0.785	0.834	–	–	–	–	–
NCI-H1299	–	–	–	–	–	1.12	1.14	1.09	1.05	1	–	–	–	–	–	1.06	1.07	1.07	0.986	1.11
NCI-H1563	–	–	–	–	–	0.954	0.882	0.872	1.06	0.991	–	–	–	–	–	–	–	–	–	–
NCI-H1623	–	–	–	–	–	0.945	0.94	0.897	0.761	0.79	–	–	–	–	–	–	–	–	–	–
NCI-H1648	0.657	0.456	0.662	0.492	0.325	–	–	–	–	–	0.337	0.458	0.362	0.4	0.317	–	–	–	–	–
NCI-H1703	–	–	–	–	–	0.307	0.316	0.322	0.368	0.327	–	–	–	–	–	1.39	1.12	0.971	0.901	0.964
NCI-H1792	0.533	–	0.524	0.374	0.631	–	–	–	–	–	–	–	–	–	–	0.745	–	1.26	0.669	0.458
NCI-H2342	0.966	0.806	0.758	0.775	0.88	1.24	1.06	0.987	1.05	1.14	0.869	0.689	0.701	0.784	0.704	–	–	–	–	–
SW 900	0.69	0.765	0.7	0.774	1	1.11	1.08	–	0.684	0.772	–	0.517	0.415	0.421	0.487	–	–	–	–	–
